# How the values were obtained:
# CAM [1] = experiment: Ex-ovo CAM assay, direct application of substances; type: in vivo, chicken (Gallus domesticus)
# Method: (§1) All CAM experiments were carried out according to the Home Office, UK guidelines. Fertilised chicken eggs (Gallus domesticus) were purchased from Henry Stewart & Co. (MedEggs, Norwich, UK). The eggs were carefully wiped with 20% industrial methylated spirit (IMS) solution using hand paper towels in order to remove dirt and feathers from the shell. The eggs were then incubated at 37.5° C. until embryonic development day (EDD) 3, lying horizontally in an humidified egg incubator (RCOM King SURO, P&T Poultry, Powys, Wales).
# (§2) On EDD3, the upper surface of the eggs were marked with a felt pen. The eggs were held horizontally (with the marked surface on top) and cracked on the edge of a 1000 ml glass beaker and kept close to the bottom surface of petri dishes. The embryos were then transferred gently into sterile petri dishes and kept in a humidified incubator (Binder, Tuttlingen, Germany) at 38° C.
# Plastic rings (˜6.5 mm in diameter) were used as a reservoir for substances and a marker for the implantation area, were placed on the CAM, and the substances were applied as 20 μl volume onto the CAM twice a day to give a […] between EDD7 and EDD11. Images of the rings were acquired using a digital microscope at EDD11, and then 20% lens culinaris agglutinin (LCA) (Vector Laboratories, Peterborough, UK) was injected into the circulation for labelling the intravascular endothelial cells using 30G needles under a dissection microscope (Wild Heerbrugg, Heerbrugg, Switzerland). CAMs were then removed and fixed in 3.7% formaldehyde solution. Embryos were sacrificed at the end of EDD11. Fixed CAM samples were then imaged under a confocal microscope (Zeiss LSM 510 Meta, Jena, Germany) for investigating the effect of substances on the microvascular structure of the CAMs.
# Blood vessels were quantified by segmentation of the images [C. Roma-Rodrigues, A. Heuer-Jungemann, A. R. Fernandes, A. G. Kanaras, P. V. Baptista, Peptide-coated gold nanoparticles for modulation of angiogenesis in vivo, IntJ Nanomedicine. 11 (2016) 2633-2639. doi: 10.2147/IJN.S108661] so as to include all discernible vessels and then counting the branch points and calculating average vessel lengths [D. Ribatti, B. Nico, A. Vacca, M. Presta, The gelatin sponge-chorioallantoic membrane assay, Nat Protoc. 1 (2006) 85-91. doi: 10.1038/nprot.2006.13, P. Brooks, A. P. Montgomery, D. Cheresh, Use of the 10-Day-Old Chick Embryo Model for Studying Angiogenesis, Integrin Protoc. 129 (1999) 257-269. doi: 10.1385/1-59259-249-X: 257] via multiple image processing steps. Firstly, the internal area of the ring was cropped, and the red, green and blue channels were split using Adobe Photoshop CS6 (ADOBE Systems Inc., San Jose, California, USA). The green channel was then imported to ImageJ (Wayne Rasband, National Institutes of Health, USA) for further analysis including unsharp mask filtering, enhancing the local contrast, noise removal and segmentation. Finally, the number of branch points was quantified using quantification software (AngioTool, National Cancer Institute, USA) (FIG. 14A) and average blood vessel lengths were calculated by using binary image histograms with known pixel/mm ratios in ImageJ (Wayne Rasband, National Institutes of Health, USA).
# The percentage vascular area (VA %) of the microvasculature of CAMs were quantified using confocal images of rhodamine labelled lectin injected CAM samples as shown in FIG. 14B. To do this, images were imported to ImageJ (Wayne Rasband, National Institutes of Health, USA) and converted to binary images after filtering and smoothing processes prior to quantification. VA % was calculated using the histogram list of black and white areas in the image.
# All chemicals were purchased from Sigma Aldrich unless indicated otherwise. […]
# CAM [2] = experiment: Ex-ovo CAM assay, implantation of E2 and 2dDR releasing PHBV scaffolds; type: in vivo, chicken (Gallus domesticus); details: for mean vessel count: control 23.1 (±1.24)
# Method: as §1, §2
# Scaffolds were cut into 5.5 mm diameter circles using a laser cutting machine (Epilog Laser Cutter, Clevedon, UK) and sterilised under UV light for 1 hour prior to implantation. Two circular scaffolds were placed on CAM at EDD8. Images of the scaffolds were acquired using a digital microscope at EDD 12 and EDD14. Microinjection of rhodamine labelled lectin into the circulation was performed, CAMs were removed and fixed in 3.7% formaldehyde solution. Embryos were then sacrificed at the end of EDD14. Angiogenesis was quantified by counting all blood vessels that converged towards the graft.
# Haematoxylin and Eosin (H&E) staining was performed on cell impregnated scaffolds by modifiying a standard protocol. Briefly, fixed samples were embedded in optimal cutting temperature OCT and frozen in liquid nitrogen for 3 minutes. Sections were cut 8-10 μm thick using a cryostat (Leica Biosystems Nussloch, Germany) at −20° C. Sections were then stained with haematoxylin for 90 seconds and eosin for 5 minutes respectively. Finally H&E images were acquired under a light microscope (Motic DM-B1, Xiamen, China). The total number of blood vessels adjacent to the scaffolds were quantified by counting blood vessels in H&E sections [A. Minajeva, M. Kase, M. Saretok, A. Adamson-Raieste, S. Kase, K. Niinepuu, M Vardja, T. Asser, J. Jaal, Impact of Blood Vessel Quantity and Vascular Expression of CD133 and ICAM-1 on Survival of Glioblastoma Patients, Neurosci J. 2017 (2017) 8 pages] Briefly, all discernible blood vessels adjacent to the scaffolds were counted by two independent researchers using two independent microscopes at 10× magnification from the total of six different slides for each group and six different area of interest from each slide.
smiles,measurement,setting,value
O=CC[C@H](O)[C@H](O)CO [2-deoxy-D-ribose],increase of number of branch points,CAM [1]; 2dDR 20 μg/day,1.3 times
same,increase of number of branch points,CAM [1]; 2dDR 200 μg/day,1.4 times
same,percentage vascular area (VA %) of microvasculature,"CAM [1]; 2dDR 200 μg/day, over 4 days, control 55.3%±3%",71.7%±3%
same,angiogenic response (average vessel length) compared to control,CAM [1]; 2dDR 1000 μg/day,no significant difference
same,increase of average vessel length,CAM [1]; both 2dDR 20 μg/day and 200 μg/day,1.2 times
same,mean vessel count,CAM [2]; 250 mg 2dDR loaded PHBV scaffolds,48.6 (±1.02)
same,mean vessel count,CAM [2]; 500 mg 2dDR loaded PHBV scaffolds,37.1 (±1.37)
same,mean number of blood vessels adjacent to the scaffolds (H&E sections),"CAM [2]; all concentrations, compared with controls and CAM only groups",significantly increased
same,number of discernible blood vessels growing towards the scaffolds in comparison with plain PHBV scaffolds,CAM [2]; all groups of releasing PHBV scaffolds,at least doubled

# — US20250099486A1, “WOUND HEALING MEDICAMENT” (The University of Sheffield, priority 2017, published 2025)
